Experiments:
[1] = tested on: ICR mice administered with amyloid β fragment; assay: Degeneration or defect of hippocampal pyramidal cells, mouse administered with amyloid β fragment, agents of Example 1; format: in vivo; conditions: 4-point grade score none (0) to severe (3), average of 10 mice; agent of Example 1, 0.3 ml/head intraperitoneally once a day up to the 8th day
Protocol: One hundred and thirty ICR mice (commercialized by Charles Liver Laboratories Japan Inc., Kanagawa, Japan) were randomly divided into 13 groups, consisting of 10 mice in each group. Amyloid β fragment, represented by an amino acid sequence of SEQ ID NO: 1, used in Experiment 3 was aged at 37° C. for four days, and administered to the lateral ventricle of each mouse in an amount of 9 nmol/6 μl/mouse (the administration method is referred to “Brain Research”, Vol. 706, pp. 181-193 (1996)). […] The mice (10 heads) in the remaining one group were intraperitoneally administered with a sterilized 10% maltose solution (pyrogen-free) once a day up to the 8th day in an amount of 0.3 ml/mouse (control). On the 8th day after the administration, novel object recognition test (see, Japanese Patent Kokai No. 2008-193941) was performed and the average discrimination index (the ratio of prolonged seeking time for novel object to the total seeking time) as a cognitive function index were shown in Table 26. On the 9th day after the administration, the brain of the mice was anatomically isolated, prepared into tissue samples in conventional manner. Depositions of aggregation of amyloid fragment were observed by staining with Congo red or thioflavin T, and degeneration or defect of hippocampal pyramidal cells concerned with cognitive function. The degeneration or the defect of hippocampal pyramidal cells was evaluated by 4-point grade score, by regarding the condition of the control without administration of amyloid β fragment as “none (O)”, “slight (1)”, “moderate (2)”, and “sever (3)”, and the average scores of 10 mice are shown in Table 20.

[2] = tested on: hamsters with cerebellar ataxia; assay: Falling down frequency of hamsters with cerebellar ataxia; format: in vivo, hamster; conditions: for Falling down frequency (count/min): hamster with cerebellar ataxia, agent of Example 1, 0.5 ml/hamster intraperitoneally once a day for 56 days; for Falling down frequency (frequency/min): cerebellar ataxia hamsters, 10-weeks of age
Source text: (§1) Since NK-4 was confirmed to have a neurodegenerative inhibitory action in Experiment 1, hamsters with cerebellar ataxia (cerebellar ataxia is called “cerebellar A” and hamsters with cerebellar ataxia are called “hamsters with cerebellar A”, hereinafter) as a suitable model for human neurodegenerative diseases (e.g., spinal cerebellar degeneration) were subjected to examine the influence of NK-4 administration on their behaviors and brain tissues. Twenty-five hamsters with natural mutation (Nna1 inhibition), which are known to lose Purkinje's cells after three-weeks of age and then induce a spontaneous onset of kinetic motor ataxia after seven-weeks of age (see Akita K. et al., “J. Neurogenetics”, Vol. 21, pp. 19-29, 2007), had been fed at Hayashibara Biochemical Laboratories., Inc., Okayama, Japan, were randomly allocated to the test groups 1 to 5, five heads in each group, as shown in Table 2. Prior to the onset of cerebellar A (at three-weeks of age), PBS was started to administer to the hamsters in the test group 1 at a dose of 10 ml/kg/day. Prior to the onset of cerebellar A (at three-weeks of age), NK-4 was started to be administered to the hamsters in the test groups 2 to 4 at a daily dose of 20 μg/kg, 100 μg/kg or 500 μg/kg. “IGF-1, human, a product name of insulin-like growth factor, commercialized by Assaypro LLC, MO, USA. These administered ingredients were intraperitoneally administered daily to hamsters once a day up to 10-weeks of age. The degree of symptom of cerebellar A and the improvement effect on the symptom by NK-4 were evaluated with an index of improvement in motor coordination of hamsters by conducting once a week the later described rotarod test and the slant tolerance test. At the age of 10-weeks, the hamsters were subjected to counting the falling down frequency and extracted their brains, which were then histologically evaluated. In parallel, the concentration of glutamic acid in the bloods and cerebrospinal fluids (CSF) of the hamsters was assayed. As a test group 6, five normal hamsters, with the same age as the hamsters with cerebellar A used in the test groups 1 to 5, were provided and tested similarly as the hamsters with cerebellar A in such a manner of intraperitoneally administering PBS to them at a dose of 10 ml/kg/day once a day up to 10-weeks of age.
Hamsters, 10-weeks of age, were respectively housed in a breeding cage. Their falling down frequencies within one minute were counted under a macroscopic observation and the data from five heads in each group were averaged. For reference, the hamsters with cerebellar A used in this experiment are known to increase their falling down frequencies after nine weeks of age.
(§2) Similarly as in Experiment 2, 130 hamsters with cerebellar ataxia, born within the same week and 3-weeks of age, were randomly divided into 13 groups, consisting of 10 hamsters, respectively. […] The hamsters (10 heads) in the remaining one group were intraperitoneally administered from their age of 3- to 10-weeks with a sterilized 10% maltose solution (pyrogen-free) in an amount of 0.5 ml/hamster (control) once a day for 56 days At the next day after the end of the administration, body weight of each hamster was weighed, followed by performing rotarod test, slope endurance test, and counting of falling down frequency. The types of compounds applied to each group and the results are in Table 25.

[3] = tested on: hamsters with cerebellar ataxia; assay: Slant tolerance test in hamsters with cerebellar ataxia; format: in vivo, hamster; conditions: for Endurable-slant-slope-angle (°): hamster with cerebellar ataxia, agent of Example 1, 0.5 ml/hamster intraperitoneally once a day for 56 days; for endurable-slant-slope-angle (degree): cerebellar ataxia hamsters
Source text: as §1
Hamsters were placed on a slope-angle-variable-board while keeping their heads upward, followed by determining the angle for allowing the hamsters to keep staying thereupon for five seconds for use as an endurable-slant-slope-angle test (see Rivlin et al., “J. Neurosurg.”, Vol. 47, pp. 577-581, […]). The initial slope angle was set to 25 degrees and increased by 5 degrees step by step. When a tested hamster in a static condition fell down within five seconds, the slope angle was decreased by one degree step by step, followed by judging the angle that allows the hamster to keep static staying for five seconds, measuring the tolerable slant-slope-angle, and averaging the data for five heads in each group.
as §2

PC12-HS cells = assay: Evaluation A: neurocyte (cell)-growth-promoting action, ALAMAR BLUE; format: cell-based, rat; conditions: for Cell survival percentage (%): cell-growth promotion; for optimum concentration for exhibiting cell-growth-promoting action: from Table 9
Protocol: Then, the effects of test samples were judged as follows:
The relative value of 140 to 199: Equivalent effect to that of NK-4, symbol (∘); The relative value of 200 or higher: Stronger effect than that of NK-4, symbol ([…]). • The results are in Table 6.
The relative fluorescent intensity of each well was determined by using the fluorescent intensity of each well with cells, which had been cultured by admixing with D-MEM medium containing 10% by volume of FBS without any of the compounds, and the intensity of the resulting culture was regarded as 100%. The results are expressed as cell survival percentages (%) in Table 9. […]
The test was conducted twice for each test sample in a triplicate manner and the data were averaged.
Seven compounds as in Table 17, NK-234, NK-26, NK-9815, NK-9694, NK-28 and NK-147 as well as NK-4, were each dissolved in DMSO to give a concentration of 5 mg/ml. […] The test was conducted twice for each test sample in a triplicate manner and the data were averaged.

[4] = no compound = 100%, final concentration 12.5 ng/ml
[5] = compound concentration 25 ng/ml
[6] = compound concentration 50 ng/ml
[7] = compound concentration 100 ng/ml
[8] = compound concentration 200 ng/ml

Structure (SMILES): COc1ccc2oc(/C=C/c3ccc(N(C)C)cc3)[n+](C)c2c1 [NK-1516]
- Degeneration/defluxion of hippocampal pyramidal cell [1]: 1.9
- Falling down frequency (count/min) [2]: 7.1 ± 0.8 count/min
- Endurable-slant-slope-angle (°) [3]: 46.5 ± 2.9 °

Structure (SMILES): CC[n+]1ccccc1/C=C/c1ccc(N(C)C)cc1 [NK-557]
- Degeneration/defluxion of hippocampal pyramidal cell [1]: 2.1
- Falling down frequency (count/min) [2]: 6.5 ± 1.1 count/min
- Cell survival percentage (%) (PC12-HS cells; final concentration 50 ng/ml): 110 ± 6%
- Cell survival percentage (%) (PC12-HS cells; final concentration 200 ng/ml): 241 ± 48%
- Cell survival percentage (%) (PC12-HS cells; final concentration 800 ng/ml): 184 ± 42%
- Cell survival percentage (%) (PC12-HS cells; [4]): 97 ± 25%
- optimum concentration for exhibiting cell-growth-promoting action (PC12-HS cells): 200 ng/mL
- Endurable-slant-slope-angle (°) [3]: 45.1 ± 3.7 °

Structure (SMILES): CCN1/C(=C/C=C(/C=C/c2sc3ccccc3[n+]2CC)c2sc3ccccc3[n+]2CC)Sc2ccccc21.[I-].[I-] [NK-100]
- Degeneration/defluxion of hippocampal pyramidal cell [1]: 0.9
- Falling down frequency (count/min) [2]: 1.3 ± 0.7 count/min
- Cell survival percentage (%) (PC12-HS cells; final concentration 50 ng/ml): 288 ± 19%
- Cell survival percentage (%) (PC12-HS cells; final concentration 200 ng/ml): 202 ± 4%
- Cell survival percentage (%) (PC12-HS cells; final concentration 800 ng/ml): 82 ± 15%
- Cell survival percentage (%) (PC12-HS cells; [4]): 154 ± 156%
- optimum concentration for exhibiting cell-growth-promoting action (PC12-HS cells): 50 ng/mL
- Endurable-slant-slope-angle (°) [3]: 50.3 ± 1.9 °

Structure (SMILES): CCCCCCCN1C=CC(=CC=C(C=Cc2cc[n+](CCCCCCC)c3ccccc23)c2cc[n+](CCCCCCC)c3ccccc23)c2ccccc21.[I-].[I-] [NK-28]
- Degeneration/defluxion of hippocampal pyramidal cell [1]: 1.4
- Falling down frequency (count/min) [2]: 1.3 ± 0.9 count/min
- Action of enhancing cell growth (%) (PC12-HS cells; [5]): 146 ± 10%
- Action of enhancing cell growth (%) (PC12-HS cells; [6]): 111 ± 28%
- Action of enhancing cell growth (%) (PC12-HS cells; [7]): 252 ± 65%
- Action of enhancing cell growth (%) (PC12-HS cells; [8]): 470 ± 17%
- Endurable-slant-slope-angle (°) [3]: 51.4 ± 2.2 °

Structure (SMILES): CCN1C=CC(=CC=C(C=Cc2cc[n+](CC)c3ccccc23)c2cc[n+](CC)c3ccccc23)c2ccccc21.[I-].[I-] [NK-4]
- Degeneration/defluxion of hippocampal pyramidal cell [1]: 1.1
- Falling down frequency (frequency/min) ([2]; 20 μg/kg body weight i.p. once a day): 4.0 ± 1.0 frequency/min
- Falling down frequency (frequency/min) ([2]; 100 μg/kg body weight i.p. once a day): 1.6 ± 0.9 frequency/min
- Falling down frequency (frequency/min) ([2]; 500 μg/kg body weight i.p. once a day): 1.2 ± 0.8 frequency/min
- Falling down frequency (count/min) [2]: 1.1 ± 0.8 count/min
- Cell survival percentage (%) (PC12-HS cells; final concentration 50 ng/ml): 154 ± 8%
- Cell survival percentage (%) (PC12-HS cells; final concentration 200 ng/ml): 309 ± 68%
- Cell survival percentage (%) (PC12-HS cells; final concentration 800 ng/ml): 254 ± 54%
- Cell survival percentage (%) (PC12-HS cells; [4]): 134 ± 8%
- Action of enhancing cell growth (%) (PC12-HS cells; [5]): 149 ± 20%
- Action of enhancing cell growth (%) (PC12-HS cells; [6]): 181 ± 79%
- Action of enhancing cell growth (%) (PC12-HS cells; [7]): 301 ± 65%
- Action of enhancing cell growth (%) (PC12-HS cells; [8]): 438 ± 48%
- optimum concentration for exhibiting cell-growth-promoting action (PC12-HS cells): 200 ng/mL
- endurable-slant-slope-angle (degree) ([3]; 20 μg/kg body weight i.p. once a day, 4-Weeks): 42.6 ± 0.5 degree
- endurable-slant-slope-angle (degree) ([3]; 20 μg/kg body weight i.p. once a day, 5-Weeks): 47.2 ± 0.4 degree
- endurable-slant-slope-angle (degree) ([3]; 20 μg/kg body weight i.p. once a day, 6-Weeks): 44.6 ± 0.5 degree
- endurable-slant-slope-angle (degree) ([3]; 20 μg/kg body weight i.p. once a day, 7-Weeks): 47.0 ± 0.3 degree
- endurable-slant-slope-angle (degree) ([3]; 20 μg/kg body weight i.p. once a day, 8-Weeks): 42.8 ± 0.5 degree
- endurable-slant-slope-angle (degree) ([3]; 20 μg/kg body weight i.p. once a day, 9-Weeks): 44.4 ± 0.5 degree
- endurable-slant-slope-angle (degree) ([3]; 20 μg/kg body weight i.p. once a day, 10-Weeks): 45.8 ± 0.6 degree
- endurable-slant-slope-angle (degree) ([3]; 100 μg/kg body weight i.p. once a day, 4-Weeks): 41.6 ± 0.4 degree
- endurable-slant-slope-angle (degree) ([3]; 100 μg/kg body weight i.p. once a day, 5-Weeks): 45.6 ± 0.2 degree
- endurable-slant-slope-angle (degree) ([3]; 100 μg/kg body weight i.p. once a day, 6-Weeks): 44.4 ± 0.3 degree
- endurable-slant-slope-angle (degree) ([3]; 100 μg/kg body weight i.p. once a day, 7-Weeks): 46.2 ± 0.4 degree
- endurable-slant-slope-angle (degree) ([3]; 100 μg/kg body weight i.p. once a day, 8-Weeks): 47.6 ± 0.4 degree
- endurable-slant-slope-angle (degree) ([3]; 100 μg/kg body weight i.p. once a day, 9-Weeks): 46.8 ± 0.3 degree
- endurable-slant-slope-angle (degree) ([3]; 100 μg/kg body weight i.p. once a day, 10-Weeks): 51.6 ± 0.6 degree
- endurable-slant-slope-angle (degree) ([3]; 500 μg/kg body weight i.p. once a day, 4-Weeks): 43.8 ± 0.4 degree
- endurable-slant-slope-angle (degree) ([3]; 500 μg/kg body weight i.p. once a day, 5-Weeks): 46.4 ± 0.2 degree
- endurable-slant-slope-angle (degree) ([3]; 500 μg/kg body weight i.p. once a day, 6-Weeks): 44.0 ± 0.6 degree
- endurable-slant-slope-angle (degree) ([3]; 500 μg/kg body weight i.p. once a day, 7-Weeks): 44.6 ± 0.5 degree
- endurable-slant-slope-angle (degree) ([3]; 500 μg/kg body weight i.p. once a day, 8-Weeks): 48.0 ± 0.5 degree
- endurable-slant-slope-angle (degree) ([3]; 500 μg/kg body weight i.p. once a day, 9-Weeks): 47.5 ± 0.4 degree
- endurable-slant-slope-angle (degree) ([3]; 500 μg/kg body weight i.p. once a day, 10-Weeks): 51.8 ± 0.4 degree
- Endurable-slant-slope-angle (°) [3]: 55.8 ± 2.5 °

Structure (SMILES): CCCN1C=CC(=CC=C(C=Cc2cc[n+](CCC)c3ccccc23)c2cc[n+](CCC)c3ccccc23)c2ccccc21.[I-].[I-] [NK-234]
- Action of enhancing cell growth (%) (PC12-HS cells; [5]): 168 ± 45%

Structure (SMILES): CN(C)c1ccc(/C=C/c2oc3ccccc3[n+]2C)cc1 [NK-528]
- Degeneration/defluxion of hippocampal pyramidal cell [1]: 2.2
- Falling down frequency (count/min) [2]: 5.2 ± 1.4 count/min
- Endurable-slant-slope-angle (°) [3]: 43.9 ± 3.0 °

From patent US20120035187A1 (priority 2009, published 2012)
